Results published in PMC11795524, “Melanin-Binding-Based Discovery of Topically Instilled Carbonic Anhydrase Inhibitors for Targeted Delivery and Prolonged Action in the Eye” (Molecular Pharmaceutics, 2025).

Experiments:
[1] = Ocular pharmacokinetics in albino rats (iris-ciliary body, 3H-A01); format: in vivo, rat
Source text: Eight albino rats (RccHan/Wist) and 18 pigmented rats (HsdOla/LH) were obtained from Envigo Laboratories B.V. (The Netherlands) and were used in pharmacokinetic experiments. Additional 13 albino and 13 pigmented rats were used in generation of the analytical standards. Young adult (3–4 months; 340–445 g) rats were used.
To conduct the pharmacokinetic study, bromo-containing CAI A15 (molecular structure presented in Table 1) was conveniently converted into [^3H]-A01 through catalytic dehalogenation in tritium gas. A15 (3.05 mg, 8.2 μmol) was dissolved in dimethylformamide (0.3 mL) and exposed to 99 mbar of tritium gas in a tritium manifold system for 1.5 h in the presence of 10% palladium on carbon (0.57 mg). Following filtration, the reaction mixture underwent double lyophilization with 1 mL ethanol to eliminate labile tritium. […] The crude material was purified via high-performance liquid chromatography, employing a Reprosil-Pur C18-HD column (250 × 10 mm, 5 μm), with a mobile phase comprising 40% acetonitrile in 50 mM ammonium hydrogen carbonate. Purified fractions were subsequently combined, subjected to solid-phase extraction, and eluted with ethanol. Radiochemical analysis indicated a purity exceeding 97%, with a molar activity of 0.29 TBq/mmol (7.9 Ci/mmol) and a total activity of 850 MBq (23 mCi). The solution of 1% A01 (10 mg/mL) was prepared similarly as in the IOP study (see Table 1) except that the solution contained also 72 μg/mL of [^3H]–A01 (specific activity 27.21 mCi/mg). The solution was prepared freshly for each experiment.
Seven μL of A01 solution (10 mg/mL including 72 μg/mL of ^3H–A01) was topically applied to both eyes of albino and pigmented rats. Rats were euthanized with carbon dioxide and cervical dislocation. The eyes (n = 4) of albino rats were collected 0.5, 2, 4, and 7 h after treatment. The eyes of pigmented rats were dissected 0.5, 2, 4, 7, 24, 48, 72, 144, and 240 h after eye drop instillation. The eyes were enucleated and dissected immediately after euthanasia. Iris-ciliary body was dissected, snap frozen on dry ice, and stored at −80 °C until analysis. The analyses were conducted within 24 h from tissue dissection.
Bound and unbound radioactivity of tritiated A01 was determined from dissected iris-ciliary body samples. First, the tissues were mechanically homogenized and diluted with 0.9% sodium chloride (weight ratio 35:1). Then, cellular unbound A01 was released from the iris-ciliary body cells by freezing and thawing the solutions three times with dry ice and a water bath (37 °C). Thereafter, the supernatant and pellet were separated by centrifuging the samples for 10 min at 13,000 rpm. The pellets were dissolved by using 60 min incubation in 100 μL of Solvable (PerkinElmer, Waltham, MA, USA). The samples were then bleached with 10 μL of hydrogen peroxide for 30 min. The pellet volume was calculated as the difference between the total and supernatant volumes.
After subtracting the background radioactivity, the measured net counts per minute (cpm) were converted to disintegrations per minute (dpm) taking into account color quenching and device efficiency. Standard curves were generated for each matrix (albino and pigmented supernatants and pellets; Appendix Figure 1). […] Signal to noise ratios of measured pellet and supernatant samples in liquid scintillation counting are shown in Appendix Table 3.

[2] = biological target: T1, human carbonic anhydrase II (Homo sapiens, UniProt P00918); assay: Multiparametric surface plasmon resonance (MP-SPR) interaction kinetics with immobilized hCAII; format: binding; conditions: MP-SPR, 25 °C, 1:1 model
T1 construct: purchased Sigma
Experimental: All MP-SPR measurements were conducted at 25 °C using carboxymethyl dextran hydrogel-coated (CMD-3DM) sensors (BioNavis) and were based on the protocol described by Rogez-Florent et al.[22]
Human carbonic anhydrase isoenzyme II (Sigma) was immobilized using a standard amine coupling procedure with the Amine Coupling Kit (BioNavis) and phosphate buffered saline (PBS) (20 mM phosphate buffer, 150 mM NaCl, pH 7.4) as the background buffer. Before immobilization, the sensor surface was cleaned with 2 M sodium chloride and 10 mM sodium hydroxide for 6 min at a flow rate of 30 μL/min. Then, a constant flow rate of 10 μL/min was maintained throughout the immobilization steps. The surface was activated for 7 min with 200 mM 1-ethyl-3-(3-(dimethylamino)propyl)-carbodiimide (EDC) and 50 mM N-hydroxysuccinimide, immediately followed by a 5 min injection of 45 μg/mL hCAII solution in 10 mM acetate buffer, pH 5.5. In the reference flow channel, no enzyme was immobilized. Residual activated groups of the dextran matrix were deactivated by a 7 min injection of 1 M ethanolamine HCl, pH 8.3.
For analyzing CAIs, 1% (v/v) DMSO in PBS, pH 7.4, was used as a running buffer. All CAIs were dissolved in 100% DMSO and stored as 50 mM stock solutions. These stock solutions were further diluted with the running buffer and analyzed using a 3-fold (3–1000 nM) dilution series. […] Each analyte was injected at a flow rate of 100 μL/min, with an association time of 2 min and a dissociation time of 10 min. […] Seven concentrations were measured for each CAI per cycle, and a “wash all” step with running buffer was performed at the end of each cycle to minimize the carry over effects. Each CAI were assayed in triplicate across three independent experiments.
The acquired data were processed using MP-SPR Navi Data Viewer software (version 6.7.0.1, BioNavis) employing the weighted centroid method for determining the SPR peak angular position. Signals from the reference flow channel were subtracted from the corresponding signals of the flow channel containing immobilized hCAII. The moment of sample injection was selected as the zero-time point, where both the time and MP-SPR response were set to zero. Processed data were globally fitted to a simple 1:1 interaction model using TraceDrawer software (version 1.9.2, Ridgeview Instruments AB, Sweden) to obtain kinetic parameters.

[3] = In vitro melanin binding by microscale thermophoresis / initial fluorescence (Monolith NT.115 pico)
Source text: Melanin binding of the CAI-II compounds was studied with a Monolith NT.115 pico (NanoTemper Technologies GmbH, Munich, Germany) device using the method of […] et al. […] Otherwise, normalized fluorescence signals and the ratio of relative fluorescence after heating (MST mode) were used. The MST software was used in expert mode to allow heating for 30 s. […] As ligand autofluorescence may interfere with the assay, their autofluorescence values were pretested with the detector used in experiment (nanoblue or pico-red). Fluorescence of the ligand should be below 20% of melanin fluorescence. Sample aggregation and adsorption to the capillaries were used also as exclusion criteria.

[4] = iris-ciliary body, single topical eye drop

C/C(=N\Nc1ccc(S(N)(=O)=O)cc1)c1cccnc1 [A01]
concentration at 4 h ([1]; RccHan/Wist (albino), rat, topical, 7 µL of 10 mg/mL solution per eye, albino iris-ciliary body, 4 h, read-out: free concentration by 4 h): ~50 ng/g | tmax (bound drug) ([1]; albino eyes): 2 h | tmax(total drug) ([1]; albino eyes): 2 h | bound concentrations ([1]; albino iris-ciliary body): < 0.05 ng/mg | bound fraction ([1]; albino iris-ciliary body): below 10% | total concentration after decline ([1]; albino iris-ciliary body): ≈ 0.05 ng/mg | Cmax,unbound ([1]; albino iris-ciliary body, 2 h postdosing): 0.50 ng/mg | Cmax, total A01 concentration (bound + unbound) ([1]; albino iris-ciliary body, 2 h postdosing, 7 μL eye drop 10 mg/mL): 0.54 ng/mg | AUC0-last in albino tissues, bound A01 [1, 4]: 0.09 (ng/mg) × h | AUC0-last in albino tissues, total A01 [1, 4]: 1.37 (ng/mg) × h | AUC0-last in albino tissues, unbound A01 [1, 4]: 1.29 (ng/mg) × h | ka [2]: 0.57 ± 0.33 10^6 M^–1 s^–1 | kd [2]: 1.45 ± 0.15 10^–2 s^–1 | Kd ([2]; read-out: KD): 0.0369 ± 0.0234 µM | Melanin binding classification ([3]; class by Kd): high (high (<65 μM)) | Kd ([3]; melanin nanoparticles 0.5 mg/mL, IF or MST mode, 68% confidence, read-out: Kd ± confidence (melanin binding)): 48 ± 13 µM
